From patent US10455839B2, “Pre-plant biocide uses of aqueous cyanamides” (METBRO DI[…], priority 2015, dated 2019) come the findings set out here.

In series [1] the test system is endo and ecotparasitic nematodes. The experiment in a line: Soil column drench, nematode control (Example 1, FIG. 2). To be noted: 750 ppm; soil screened free of roots; 15, 30 and 60 days after treatment. The series is classed as in vivo. Here is the method: In situ soil borne pest and disease populations were determined from known commercial locations. These infested soils were commonly of sandy loam or fine sandy loam texture that were screened free of all but the smallest of roots as they were placed into buckets. Buckets were then transported to a single location of deep loamy sand soil where 30″ long by 3″ diameter PVC open-ended pipes had been inserted to a depth of 22″ using a 3″ can auger (FIG. 1). Each soil column was then filled with infested soil to a depth of 22″ using a shovel handle to compress soil density during the soil transfer process.
The surface 8″ of each column remained vacant in order to eventually apply one liter of biocide solution onto each soil column and then determine the amount of time required to fully infiltrate the liter of water. Because infiltration rates varied from 3 hr to 4 days across each different biocide with or without adjuvant each column was used only once. Columns were cleaned and re-inserted to a different nearby location for subsequent tests. As testing proceeded dosage response curves were developed to reveal dosages needed to reach threshold levels for pest impact followed by quantification of the dosage needed to achieve as much as 100% pest kill where possible. […]

For series [2], the system named is Meloidogyne incognita race-3. The experiment in a line: Field Station drench of sandy loam soil infested with root-knot nematode (FIGS. 18-19). The series is classed as in vivo. The protocol: Field Station evaluations included sandy loam soil at 10° C. vs 15° C. in adjacent sites. These sites were uniformly infested with Meloidogyne incognita race-3. The first site (10° C.) was drenched with 750 or 1,000 ppm to a depth of 40 cm and planted with carrots 70 DAT. Ten weeks later soil at the second site (15° C.) was drenched with 1,250 or 1,500 ppm and 30 DAT planted with sweet potato slips. Nematode samples were collected at 0-15 and 15-30 cm depths.

Series [3] deals with F. oxysporum race-4. The experiment in a line: Field Station drench of sandy loam soil to be planted to cotton, fungal counts (FIGS. 20-21). The note with it: 3,000 or 4,500 ppm drenched to 40 cm; sandy loam at 10° C.; counted 28 and 70 DAT. The format is in vivo, Fusarium oxysporum. Here is the method:
Field Station evaluation in sandy loam soil at 10° C. to be planted to cotton soil was drenched with 3,000 or 4,500 ppm HyCyn to 40 cm depth. F. oxysporum race-4 were identified and counted at 28 DAT (FIG. 20) and 70 DAT (FIG. 21).

In series [4] the test system is cotton or occasional nutgrass. The series is described as follows: Phytotoxicity after drench in cotton field. The format is in vivo. To be noted: 3,000 or 4,500 ppm; never irrigated field.
In series [5] the test system is Young almond trees on NEMAGUARD rootstock. The series is described as follows: Almond replant site soil, potted tree growth (FIGS. 22-23). The format is in vivo. The source says: Field Station evaluation involved sandy loam soil at an almond replant site drenched uniformly with 1,000 ppm. Surface soil was collected 60 days later and potted from three treatments, water only, 250 ppm Telone EC and 1000 ppm HyCyn. Young almond trees on NEMAGUARD rootstock were planted to each pot and trees maintained for six months.

The test system of series [6] is one-year-old almonds trees. The series is described as follows: Root system soak of one-year-old almond trees (FIGS. 24-25). The format is in vivo. The note with it: 750 ppm, 24 hr, entire root systems soaked in a static setting. An excerpt: Field Station evaluation where root systems of one-year-old almonds trees were placed in concentrations of HyCyn. Intact 1-yr-old trees were separated from their planting pots and placed into buckets containing open solutions of 400; 750; 1,000; 1,250; 1,500; or 3,000 ppm HyCyn for 6, 18 or 24 hr. […] The results are depicted in FIGS. 24 and 25.

The subject of series [7] is eight-year-old butternut trees, Juglans cathayensis. The series is described as follows: Drench of eight-year-old butternut trees, tree kill (FIG. 26). The series is classed as in vivo. An excerpt: Field Station evaluation of eight-year-old butternut trees, Juglans cathayensis, drenched with 2,000 ppm HyCyn within 400 or 800 L water. Two of four trees receiving 400 L solution were not completely killed but four of four trees receiving 800 L of the same solution were killed (FIG. 26).

The subject of series [8] is P. vulnus. The experiment in a line: Five-day sieve-mist extraction of nematodes from roots and soil after tree drench (FIG. 27). The series is classed as in vivo, Pratylenchus vulnus. The note with it: 2,000 ppm drench.

As for `N#CN` [HyCyn, hydrogen cyanamide], in series [1], the “effect on nematode populations in test soil” value is “elimination of endo and ecotparasitic nematodes”. In addition, the nematode control entry in series [2] (750 or 1,000 ppm drenched to 40 cm, sandy loam soil at 10° C., carrots) was “no nematode control”; in series [2] (1,250 or 1,500 ppm, sandy loam soil at 15° C., sweet potato) it was “did provide nematode control”. Also, the “rate needed to halt F. oxysporum” value in series [3] is given as “highest rate was necessary to halt F. oxysporum”. Also, the “burning of leaves of cotton or occasional nutgrass” value in series [4] was “did not cease even five months after treatment”. The “root rejection component of the replant problem” value in series [5] (1,000 ppm) is “provides a remedy for the root rejection component of the replant problem”. The “tree growth after six months (FIG. 23)” value in series [5] (1,000 ppm, compared to soil treated with 250 ppm Telone ec or untreated soil) was “improved growth”. Also, the “tree growth within 2 months after planting” value in series [5] (soil drenched with 1,000 ppm, collected 60 days later and potted, versus water only) is on record as “improved growth”. Besides, the “plant biomass at the 6th month” value in series [5] (soil drenched with 1,000 ppm, compared to the untreated) is on record as “plant biomass differences were greater”. In series [6], the “tree survival after root soak” value is listed as “no tree survived or re-initiated growth”. In addition, the “trees not completely killed” value in series [7] (2,000 ppm within 400 L water) is on record as “Two of four”. The trees killed entry in series [7] (2,000 ppm within 800 L water) is “four of four”. Further, the “kill of soil dwelling nematodes” value in series [8] (beneath the surface 90 cm of treated soil) is recorded as 99.9%. Moreover, the “kill of P. vulnus from root samples” value in series [8] (root samples, FIG. 27: 30 DAT) is given as “kill of all P. vulnus”.
